Assay results: patent publication US20260209175A1, “PHARMACEUTICALLY ACCEPTABLE 5-METHOXY-N,N-DIMETHYL[…] AND COMPOSITIONS THEREOF” (priority 2022, published 2026)

Experiments:
Format in all cases: physicochemical
[1] = Dissolution rate in simulated nasal fluid (UV-fiber optic dissolution apparatus); details: 5 mg in 5 mL simulated nasal fluid, 37° C., 150 RPM
Experimental: The dissolution rate was determined using a method comprising the use of a UV-fiber optic-based dissolution apparatus (one such suitable device is the Rainbow® Dynamic Dissolution Monitor by Pion Inc) and simulated nasal fluid. The simulated nasal fluid comprises 7.45 g/L NaCl, 1.29 g/L KCl, 0.32 g/L CaCl2×2H2O and deionised water.
The dissolution apparatus was set up with a 2 mm probe to measure the dissolution rate. 5 mg of the salt form was transferred into 5 mL of simulated nasal fluid, heated to a constant temperature of 37° C. and stirred at 150 RPM using a crossed stirrer bar. Measurements were taken at 3 s intervals for 130 intervals followed by 60 measurements taken at 10 s intervals for a total time of 16 minutes and 30 s. Detection of dissolution is by UV absorbance.

[2] = Polymorphism screen of benzoate salt (thermal cycling, evaporations, antisolvent additions, cooling), XRPD
Experimental: To render the amorphous and thus remove seeds of the supplied pattern 1 the supplied material was lyophilised in an attempt to render it amorphous. To 2.396 g of the supplied benzoate salt lot 800674000 dioxane (55 ml) and water (5 ml) was added. The mixture was agitated gently and warmed to aid dissolution.
Twenty five of the lyophilised samples were treated with solvent and thermally cycled between ambient and 40° C. with four hours spent under each condition. After three days and solids were isolated by centrifuge filtration and analysed by XRPD.
Twelve samples of the lyophilised material were treated with a minimal volume (ca 0.5 ml) of warm solvent, syringe filtered through a 0.22 micrometre filter and added to a clean HPLC vial and allowed to evaporate at RT. The solvents used and XRPD results following evaporation are detailed in the Table below:
For antisolvent additions thirteen samples of the lyophilised material were dissolved in a small amount of hot solvent (^~0.5 ml). […] A large excess of antisolvent was then added, the vials sealed. After storage at RT overnight, and samples where no solid had been produced were first cooled to 4° C. for ^~24 hrs, and again if no solid was produced, they were cooled to −18° C. Any solids were isolated by centrifuge filtration and analysed by XRPD.
For the cooling experiments twelve samples of the lyophilised material were dissolved in a small amount of hot solvent (^~0.5 ml) and syringe filtered through a 0.22 μm filter into a clean HPLC vial. Samples were allowed to cool to RT, and if no solid was produced to 4° C. and then to −18° C. Solids were isolated by centrifuge filtration and analysed by XRPD.

[3] = Solubility assessments in four different media; details: 50 mg per vial; for Observation: 0.5 ml media at 37° C.
Experimental: Solubility assessments of 5-MeO-DMT oxalate, hydrobromide fumarate and benzoate were performed in four different media: […]

With `COc1ccc2[nH]cc(CCN(C)C)c2c1.O=C(O)c1ccccc1` [benzoate salt, 5-MeO-DMT benzoate] the dissolution rate [1] was “almost instantaneous”, the “XRPD Results” value ([2]; antisolvent addition, solvent DMF, anti solvent PhMe, Cooled −18 C., DJP2202-012-07) was “No solid” and the “XRPD Results” value ([2]; antisolvent addition, solvent EtOH, anti solvent Heptane, Some solid at RT, DJP2202-012-04) was “Pattern 1”. For the same molecule, the “XRPD Results” value ([2]; antisolvent addition, solvent EtOH, anti solvent TBME, Cooled −18 C., DJP2202-012-03) was “No solid”, the “XRPD Results” value ([2]; antisolvent addition, solvent IPAC, anti solvent TBME, Cooled −18 C., DJP2202-012-08) was “No solid” and the “XRPD Results” value ([2]; antisolvent addition, solvent MEK, anti solvent Heptane, Some solid at RT, DJP2202-012-10) was “Pattern 2”. The “XRPD Results” value ([2]; antisolvent addition, solvent MEK, anti solvent TBME, Cooled −18 C., DJP2202-012-09) was “No solid”, the “XRPD Results” value ([2]; antisolvent addition, solvent MeCN, anti solvent PhMe, Some solid at RT, DJP2202-012-12) was “Pattern 4” and the “XRPD Results” value ([2]; antisolvent addition, solvent MeCN, anti solvent TBME, Cooled −18 C., DJP2202-012-11) was “No solid”. For the same molecule, the “XRPD Results” value ([2]; antisolvent addition, solvent MeOH, anti solvent TBME, Cooled −18 C., DJP2202-012-02) was “No solid”, the “XRPD Results” value ([2]; antisolvent addition, solvent MeOH/water Aw 0.2, anti solvent MeOH, Cooled −18 C., DJP2202-012-01) was “No solid” and the “XRPD Results” value ([2]; antisolvent addition, solvent THF, anti solvent TBME, Cooled −18 C., DJP2202-012-05) was “No solid”. For the same molecule, the “XRPD Results” value ([2]; antisolvent addition, solvent dioxane, anti solvent TBME, Cooled −18 C., DJP2202-012-06) was “No solid”, the “XRPD Results” value ([2]; cooling experiment, EtOH, Solid at RT, DJP2202-013-05) was “Pattern 4” and the “XRPD Results” value ([2]; cooling experiment, IPA, Solid at RT, DJP2202-013-06) was “Pattern 4”. The “XRPD Results” value ([2]; cooling experiment, IPAC, Solid at RT, DJP2202-013-10) was “Pattern 4”, the “XRPD Results” value ([2]; cooling experiment, MEK, Solid at RT, DJP2202-013-11) was “Pattern 2” and the “XRPD Results” value ([2]; cooling experiment, MeCN, Solid at RT, DJP2202-013-12) was “Pattern 4”. The “XRPD Results” value ([2]; cooling experiment, MeOH/water Aw 0.2, Cooled −18 C., DJP2202-013-01) was “Pattern 4”, the “XRPD Results” value ([2]; cooling experiment, MeOH/water Aw 0.6, Cooled −18 C., DJP2202-013-02) was “no solids” and the “XRPD Results” value ([2]; cooling experiment, MeOH, Cooled −18 C., DJP2202-013-04) was “no solids”. The “XRPD Results” value ([2]; cooling experiment, THF, Solid at RT, DJP2202-013-07) was “Pattern 4”, the “XRPD Results” value ([2]; cooling experiment, Water, Cooled −18 C., DJP2202-013-03) was “Pattern 4” and the “XRPD Results” value ([2]; cooling experiment, chlorobenzene, Solid at RT, DJP2202-013-09) was “mix #4 #2”. For the same molecule, the “XRPD Results” value ([2]; cooling experiment, dioxane, Solid at RT, DJP2202-013-08) was “Pattern 3”, the “XRPD Result” value ([2]; evaporation at RT of lyophilised material from 1-PrOH, DJP2202-010-02) was “Oil” and the “XRPD Result” value ([2]; evaporation at RT of lyophilised material from EtOH, DJP2202-010-05) was “Oil”. The “XRPD Result” value ([2]; evaporation at RT of lyophilised material from IPA, DJP2202-010-06) was “Pattern 4”, the “XRPD Result” value ([2]; evaporation at RT of lyophilised material from IPAC, DJP2202-010-10) was “Pattern 2” and the “XRPD Result” value ([2]; evaporation at RT of lyophilised material from MEK, DJP2202-010-11) was “Pattern 4”. For the same molecule, the “XRPD Result” value ([2]; evaporation at RT of lyophilised material from MIBK, DJP2202-010-04) was “Oil”, the “XRPD Result” value ([2]; evaporation at RT of lyophilised material from MeCN, DJP2202-010-12) was “Pattern 4” and the “XRPD Result” value ([2]; evaporation at RT of lyophilised material from THF, DJP2202-010-07) was “Pattern 4”. For the same molecule, the “XRPD Result” value ([2]; evaporation at RT of lyophilised material from chlorobenzene, DJP2202-010-09) was “Pattern 4”, the “XRPD Result” value ([2]; evaporation at RT of lyophilised material from dioxane, DJP2202-010-08) was “Pattern 4” and the “XRPD Result” value ([2]; thermal cycle ambient/40° C., 3 days, 1,4-Dioxane 200 μl, isolated after thermal cycle, DJP2202-006-01) was “Pattern 3”. The “XRPD Result” value ([2]; thermal cycle ambient/40° C., 3 days, 1-Propanol 200 μl, isolated after thermal cycle, DJP2202-006-02) was “Pattern 4”, the “XRPD Result” value ([2]; thermal cycle ambient/40° C., 3 days, 2-Butanol 200 μl, isolated after thermal cycle, DJP2202-006-03) was “Pattern 4” and the “XRPD Result” value ([2]; thermal cycle ambient/40° C., 3 days, 2-Me-1-PrOH 200 μl, isolated after thermal cycle, DJP2202-006-21) was “Pattern 4”. The “XRPD Result” value ([2]; thermal cycle ambient/40° C., 3 days, 2-Methyltetrahydrofuran 200 μl, isolated after thermal cycle, DJP2202-006-05) was “Pattern 4”, the “XRPD Result” value ([2]; thermal cycle ambient/40° C., 3 days, 2-Propanol 200 μl, isolated after thermal cycle, DJP2202-006-06) was “Pattern 4” and the “XRPD Result” value ([2]; thermal cycle ambient/40° C., 3 days, Acetone 200 μl, isolated after thermal cycle, DJP2202-006-07) was “Pattern 4”. The “XRPD Result” value ([2]; thermal cycle ambient/40° C., 3 days, Acetonitrile 200 μl, isolated after thermal cycle, DJP2202-006-08) was “Pattern 4”, the “XRPD Result” value ([2]; thermal cycle ambient/40° C., 3 days, Anisole 200 μl, isolated after thermal cycle, DJP2202-006-09) was “Pattern 4” and the “XRPD Result” value ([2]; thermal cycle ambient/40° C., 3 days, Chlorobenzene 200 μl, isolated after thermal cycle, DJP2202-006-10) was “Pattern 4 +”. For the same molecule, the “XRPD Result” value ([2]; thermal cycle ambient/40° C., 3 days, Ethanol 150 μl, isolated after thermal cycle, DJP2202-006-11) was “Pattern 4”, the “XRPD Result” value ([2]; thermal cycle ambient/40° C., 3 days, Ethyl acetate 200 μl, isolated after thermal cycle, DJP2202-006-12) was “Pattern 4” and the “XRPD Result” value ([2]; thermal cycle ambient/40° C., 3 days, Formamide 150 μl, isolated after thermal cycle, DJP2202-006-17) was “Pattern 4”. For the same molecule, the “XRPD Result” value ([2]; thermal cycle ambient/40° C., 3 days, Isopropyl acetate 200 μl, isolated after thermal cycle, DJP2202-006-13) was “Pattern 4”, the “XRPD Result” value ([2]; thermal cycle ambient/40° C., 3 days, MeOH/water 360/640 Calc Aw 0.821, 200 μl, clear solution, evaporated to solid, DJP2202-006-25) was “Pattern 1” and the “XRPD Result” value ([2]; thermal cycle ambient/40° C., 3 days, MeOH/water 693/307 Calc Aw 0.599, 200 μl, clear solution, evaporated to solid, DJP2202-006-24) was “Pattern 1”. The “XRPD Result” value ([2]; thermal cycle ambient/40° C., 3 days, Methanol 200 μl, clear solution, evaporated to solid, DJP2202-006-14) was “Pattern 1”, the “XRPD Result” value ([2]; thermal cycle ambient/40° C., 3 days, Methylethyl ketone 200 μl, isolated after thermal cycle, DJP2202-006-16) was “Pattern 4” and the “XRPD Result” value ([2]; thermal cycle ambient/40° C., 3 days, Propyl acetate 200 μl, isolated after thermal cycle, DJP2202-006-15) was “Pattern 4”. For the same molecule, the “XRPD Result” value ([2]; thermal cycle ambient/40° C., 3 days, Tetrahydrofuran 200 μl, isolated after thermal cycle, DJP2202-006-22) was “Pattern 4”, the “XRPD Result” value ([2]; thermal cycle ambient/40° C., 3 days, iso-Propyl acetate 200 μl, isolated after thermal cycle, DJP2202-006-20) was “Pattern 4” and the “pH after addition of 0.5 ml media at 37° C.” value (shortened to “pH after addition”) ([3]; SNF) was 6.77. The Observation ([3]; SNF) was “Clear solution”, the “pH after addition” value ([3]; pH 1.2 buffer) was 5.28 and the Observation ([3]; pH 1.2 buffer) was “Clear solution”. The “pH after addition” value ([3]; pH 4.5 buffer) was 5.22, the Observation ([3]; pH 4.5 buffer) was “Clear solution” and the “pH after addition” value ([3]; pH 6.8 buffer) was 6.82. The Observation ([3]; pH 6.8 buffer) was “Clear solution”.
